Marks after values point to notes of the source that are not given here.
What was measured:
TNBS induced colitis [1] = experiment: TNBS induced colitis in rats: colon wet weight and macroscopic colon score; details: for Colon Score / Colon wet weight (g): day 11
IL1-β = experiment: Plasma cytokine ELISA in TNBS colitis rats: IL1-β
IL10 = experiment: Plasma cytokine ELISA in TNBS colitis rats: IL10
IL6 = experiment: Plasma cytokine ELISA in TNBS colitis rats: IL6; details: Example 3; oral day 4-10: PB6 1.5 108 CFU/Kg thrice daily; Lysophospholipid 10.3 mg/Kg 2 times daily; combination 25.75 mg/ml 2 times daily; Mesacol 250 mg/Kg once daily
TNF-α = experiment: Plasma cytokine ELISA in TNBS colitis rats: TNF-α
TGF-β = experiment: Plasma cytokine ELISA in TNBS colitis rats: TGF-β
TNBS induced colitis [2] = system: TNBS induced colitis
IFN-γ = experiment: Plasma cytokine ELISA in TNBS colitis rats: IFN-γ
[3] = parameters: species or system Cobb 400 broiler chickens; details: in vivo
[4] = parameters: species or system Cobb 400 broiler chickens; details: in vivo; remark: listed apart in the source
NFκB = experiment: Inflammation test without TNF-α (NFκB luciferase reporter); type: cell-based; details: FIG. 9
Description: An overnight culture of HepG2/NFκB-Luc cells were trypsinized and transferred to 96-well microtiter plate, with 1.5×10^4 cells/well. […] After incubation, the supernatant was removed, and 100 μl of luciferase substrate was added into each well and incubated for 5 minutes. Then 80 μl of the solution was transferred to a clean microtiter plate to determine the florescence unit by Steady-Glo® Luciferase Assay System. The LPC-treated cells without substrate added were used as control.

HepG2/NFκB-Luc cells = experiment: Cytotoxicity test (AlamarBlue reduction rate); type: cell-based; details: 2 mg/ml (~3636 μM) LPC content; 4 hours; FIG. 8
Description: An overnight culture of HepG2/NFκB-Luc cells were trypsinized and transferred to 96-well microtiter plate, with 1.5×10^4 cells/well. The 96-well microtiter plates were incubated for 24 hours at 37° C. with 5% CO2. Then different concentrations of LPC samples were added into plate wells together with AlamarBlue. The cells were incubated for 4 hours at 37° C. with 5% CO2 before the OD570 and OD600 readings were measured. Culture medium with no LPC added was used as a control. The cytotoxicity was reflected by the amount of AlamarBlue being reduced (reduction rate (RR)) as determined by the following formula:
RR %={[(εoxλ2)(Aλ1)−(εoxλ1)(Aλ2)]}/{[(εredλ1)(A′λ2)−(εredλ2)(A′λ1)]}×100%
where, εredλ1=155677 (absorption coefficient of reduced AlamarBlue at 570 nm) • Εredλ2=14652 (absorption coefficient of reduced AlamarBlue at 600 nm) • εoxλ1=80586 (absorption coefficient of oxidized AlamarBlue at 570 nm) • εoxλ2=117216 (absorption coefficient of oxidized AlamarBlue at 600 nm) • A′λ1=OD570 of the blank control (wells with AlamarBlue but no cells) • A′λ2=OD600 of the blank control (wells with AlamarBlue but no cells).

[5] = Example 3, oral day 4-10: PB6 1.5 108 CFU/Kg thrice daily, Lysophospholipid 10.3 mg/Kg 2 times daily, combination 25.75 mg/ml 2 times daily, Mesacol 250 mg/Kg once daily
[6] = Example 4, Lysoprin + Marinol + lutein at 21.5 mg/kg orally thrice daily day 4-10, Mesacol 250 mg/Kg orally once daily

Compound: Nc1ccc(O)c(C(=O)O)c1 [Mesacol, 5-aminosalicylic acid]
- macroscopic examination of the colonic tissue (TNBS induced colitis [1]; Example 3, PB6 (Group 4), Lysophospholipid 10.3 mg/kg (Group 5), combination 21.63 mg/kg (Group 6), Mesacol (Group 7)): no lesions with any visible inflammation or injury in the colonic tissue
- Colon Score (TNBS induced colitis [1]; Example 3, macroscopic grade 0-5, oral day 4-10: PB6 1.5 108 CFU/Kg thrice daily, Lysophospholipids 10.3 mg/Kg 2 times daily, combination 25.75 mg/ml 2 times daily, Mesacol 250 mg/Kg once daily): 0.833^a
- Colon wet weight (g) (TNBS induced colitis [1]; Example 3, oral day 4-10: PB6 1.5 108 CFU/Kg thrice daily, Lysophospholipids 10.3 mg/Kg 2 times daily, combination 25.75 mg/ml 2 times daily, Mesacol 250 mg/Kg once daily): 0.669^a g
- Colon wet weight (g) (TNBS induced colitis [1]; Example 4, Lysoprin + Marinol + lutein at 21.5 mg/kg orally thrice daily day 4-10, Mesacol 250 mg/Kg orally once daily day 4-10): 0.336^ab g
- Colon Score (TNBS induced colitis [1]; Example 4, grade 0-5, Lysoprin + Marinol + lutein at 21.5 mg/kg orally thrice daily day 4-10, Mesacol 250 mg/Kg orally once daily day 4-10): 1.000^a
- macroscopic examination of the colonic tissue (TNBS induced colitis [1]; Example 4, low dose combination at 21.63 mg/kg (Group 4), Mesacol (Group 6, n=4/6)): signs of amelioration with reduced localized ulceration
- IL1-β level in Plasma Day 7 (IL1-β; [5]): 881.52^b picogram/ml
- IL1-β level in Plasma Day 11 (IL1-β; [5]): 848.33^bc picogram/ml
- IL1-β level in Plasma Day 7 (IL1-β; [6]): 567±^a picogram/ml
- IL1-β level in Plasma Day 11 (IL1-β; [6]): 685±^bc picogram/ml
- IL10 level in Plasma Day 7 (IL10; [5]): 217.9ab picogram/ml
- IL10 level in Plasma Day 11 (IL10; [5]): 444c picogram/ml
- IL10 level in Plasma Day 7 (IL10; [6]): 231^ab picogram/ml
- IL10 level in Plasma Day 11 (IL10; [6]): 454^d picogram/ml
- IL6 level in Plasma Day 11 (IL6): 127.4^a picogram/ml
- TNF-α level in Plasma Day 7 (TNF-α; [5]): 22.77^a picogram/ml
- TNF-α level in Plasma Day 11 (TNF-α; [5]): 30.27^b picogram/ml
- TNF-α level in Plasma Day 7 (TNF-α; [6]): 29±^ab picogram/ml
- TNF-α level in Plasma Day 11 (TNF-α; [6]): 28±^a picogram/ml
- TGF-β level in Plasma Day 7 (TGF-β; [5]): 17535 ± 2261a picogram/ml
- TGF-β level in Plasma Day 11 (TGF-β; [5]): 32542 ± 5294b picogram/ml
- TGF level in Plasma Day 7 (TGF-β; [6]): 37^b picogram/ml
- TGF level in Plasma Day 11 (TGF-β; [6]): 40^c picogram/ml
- % Body weight gain/loss Day 1-4 (TNBS induced colitis [2]; Example 3, TNBS day 1, Day 1-4 is prior to treatment (treatment from day 4)): −6.6%
- % Body weight gain/loss Day 4-10 (TNBS induced colitis [2]; Example 3, oral day 4-10: PB6 1.5 10^8 CFU/Kg thrice daily, Lysophospholipids 10.3 mg/Kg 2 times daily, combination 25.75 mg/ml 2 times daily, Mesacol 250 mg/Kg once daily): −1.87%
- mortalities due to severe weight loss (TNBS induced colitis [2]; Example 4, Mesacol 250 mg/kg group, n=6): two
- IFN-γ level in Plasma Day 7 (IFN-γ; [5]): 20.8^a picogram/ml
- IFN-γ level in Plasma Day 11 (IFN-γ; [5]): 40.23^c picogram/ml
- IFN-γ level in Plasma Day 7 (IFN-γ; [6]): 37^b picogram/ml
- IFN-γ level in Plasma Day 11 (IFN-γ; [6]): 40^c picogram/ml

Compound: CC1=C[C@H](O)CC(C)(C)[C@H]1/C=C/C(C)=C/C=C/C(C)=C/C=C/C=C(C)/C=C/C=C(C)/C=C/C1=C(C)C[C@@H](O)CC1(C)C [Treatment 2, lutein]
- performance (feed intake, weight gain, FCR) [3]: comparable to that of the control group

Compound: CCC(=O)[O-].CCC(=O)[O-].CCC(=O)[O-].[Cr+3] [Treatment 3, chromium propionate]
- FCR [3]: A similar trend
- weight gain [3]: A similar trend
- relative weight of the thymus [4]: higher

Compound: lysophosphatidylcholine [pure LPC]
- inflammation activity (luciferase activity), without TNF-α, highest concentration (NFκB; 50 μM of LPC, compared to the mock treatment): no statistical difference
- inflammation activity (luciferase activity), without TNF-α (NFκB; 5, 15 and 50 μM LPC content, 6 hours): inflammatory effect at all the three concentrations tested
- cytotoxicity (AlamarBlue reduction rate) (HepG2/NFκB-Luc cells): Certain inhibition
